Experimental data from patent EP2532242A1, “Use of bispyridiniumalkanes for killing spores” (L'AIR LIQUIDE, SOCIETE ANONYME POUR L'ETUDE ET …, priority 2011, dated 2012).

What was measured:
[1] = tested on: Bacillus subtilis ATCC 6633; test: Concentration test spores of Bacillus subtilis (method B), with and without lysozyme; format: cell-based; conditions: use concentration of 0.001% (Figure 2)
Procedure: • fixed pipettes 1 ml; 500 µl, and 100 µl • sterile glass pipettes 10 ml • sterile spatulas • sterile Schott bottles • water bath 30°C • CSA-agar + TLSH (Tween 80 3%; lecithin 0.3%; saponin 3%, histidine 0.1%) • Bacillus subtilis ATCC 6633 stored in a) H2O or b) ethanol
Spore samples are provided commercially, sometimes as ethanolic solution (40% ethanol in water).
Germination medium: + TLSH:
The germ count of the ordered spore solution is ascertained prior to the start of the experiment by means of plating out and counting and, if appropriate, the spore suspension is diluted. On the day of the experiment, a starting germ count (SGC) is again generated from the spore suspension used. By means of spore counting under the microscope in a Helber chamber, a comparison is drawn between spores which are actually present and the number of germinating spores. The starting spore count should be ca. 1 × 10^7 CFU/ml. With the help of the malachite green coloration, adequate sporulation of the spore suspension used was verified by means of light microscopy.
Samples are taken regularly over several weeks. The experimental solutions stand in the dark at room temperature during the action times.
In each case 50 ml per solution to be investigated are pipetted into a sterile Schott bottle, inoculated with 50 µl of spore suspension and incubated at room temperature. […]

spores = conditions: prior art; cited from earlier work

Molecule	effect against B. subtilis ATCC 6633 [1]	time after which the effect can be detected [1]	germination of spores (spores)	killing of spores (spores)
CCCCCCCCN=c1ccn(CCCCCCCCCCn2ccc(=NCCCCCCCC)cc2)cc1.Cl.Cl [octenidine, N,N'-(1,10-decanediyldi-1[4H]-pyridinyl-4-ylidene)bis(1-octanamine) dihydrochloride]	effective	after just one day		
benzalkonium chloride			prevent the germination of spores	spores are not killed
CCCCCCCCCC[N+](C)(C)CCCCCCCCCC.[Cl-] [didecyldimethylammonium chloride]			prevent the germination of spores	do not kill them
